Measured values reported in ChEMBL document CHEMBL5143507, “Small Molecule Kinase Inhibitor Drugs (1995-2021): Medical Indication, Pharmacology, and Synthesis” (J Med Chem, 2022).

Experiments:
[1] = molecular target: Receptor tyrosine-protein kinase erbB-2 (Homo sapiens, UniProt P04626); experiment: Inhibition of N-terminal GST fused HER2 (679 to 1255 residues) (unknown origin) using poly (Glu-Tyr) E4Y1 peptide as substrate measured after 4 hrs by ADP-Glo reagent method
[2] = molecular target: Epidermal growth factor receptor (Homo sapiens, UniProt P00533); experiment: Inhibition of N-terminal GST fused EGFR (668 to 1091 residues) (unknown origin) using poly (Glu-Tyr) E4Y1 peptide as substrate incubated for 2 hrs by ADP-Glo reagent method
Chain of Epidermal growth factor receptor (P00533 whole entry, the tested form may be a part): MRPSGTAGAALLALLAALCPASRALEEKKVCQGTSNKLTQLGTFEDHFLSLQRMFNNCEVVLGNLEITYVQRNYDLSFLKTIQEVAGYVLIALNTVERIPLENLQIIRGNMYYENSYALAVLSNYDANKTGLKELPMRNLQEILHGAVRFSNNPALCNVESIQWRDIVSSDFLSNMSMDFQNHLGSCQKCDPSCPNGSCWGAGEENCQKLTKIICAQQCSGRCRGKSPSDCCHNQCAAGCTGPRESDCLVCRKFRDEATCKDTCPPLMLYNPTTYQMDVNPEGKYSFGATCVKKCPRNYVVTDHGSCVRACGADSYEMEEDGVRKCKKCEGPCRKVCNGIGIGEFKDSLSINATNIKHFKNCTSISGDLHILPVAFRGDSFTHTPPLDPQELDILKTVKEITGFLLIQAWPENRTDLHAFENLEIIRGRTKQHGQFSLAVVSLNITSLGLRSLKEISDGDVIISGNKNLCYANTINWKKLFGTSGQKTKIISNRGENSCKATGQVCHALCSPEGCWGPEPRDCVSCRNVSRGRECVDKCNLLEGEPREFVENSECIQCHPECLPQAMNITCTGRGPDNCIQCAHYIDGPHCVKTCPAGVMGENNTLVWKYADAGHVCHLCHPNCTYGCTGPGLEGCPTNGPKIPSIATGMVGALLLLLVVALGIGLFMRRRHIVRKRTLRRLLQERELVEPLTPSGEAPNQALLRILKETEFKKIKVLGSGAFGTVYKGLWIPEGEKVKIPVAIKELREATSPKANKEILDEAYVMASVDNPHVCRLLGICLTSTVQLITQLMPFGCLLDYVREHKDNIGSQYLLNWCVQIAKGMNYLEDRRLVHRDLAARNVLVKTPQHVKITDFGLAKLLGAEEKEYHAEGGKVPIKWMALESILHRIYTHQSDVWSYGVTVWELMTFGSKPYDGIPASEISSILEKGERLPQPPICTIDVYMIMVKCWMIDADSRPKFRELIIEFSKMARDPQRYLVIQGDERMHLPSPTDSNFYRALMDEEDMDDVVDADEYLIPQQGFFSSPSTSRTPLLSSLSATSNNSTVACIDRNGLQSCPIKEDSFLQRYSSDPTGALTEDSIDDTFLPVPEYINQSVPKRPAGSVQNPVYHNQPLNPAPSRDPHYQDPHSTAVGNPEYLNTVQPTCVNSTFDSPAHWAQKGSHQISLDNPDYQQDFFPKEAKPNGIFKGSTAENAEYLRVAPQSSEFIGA

Chain of Receptor tyrosine-protein kinase erbB-2 (P04626 whole entry, the tested form may be a part): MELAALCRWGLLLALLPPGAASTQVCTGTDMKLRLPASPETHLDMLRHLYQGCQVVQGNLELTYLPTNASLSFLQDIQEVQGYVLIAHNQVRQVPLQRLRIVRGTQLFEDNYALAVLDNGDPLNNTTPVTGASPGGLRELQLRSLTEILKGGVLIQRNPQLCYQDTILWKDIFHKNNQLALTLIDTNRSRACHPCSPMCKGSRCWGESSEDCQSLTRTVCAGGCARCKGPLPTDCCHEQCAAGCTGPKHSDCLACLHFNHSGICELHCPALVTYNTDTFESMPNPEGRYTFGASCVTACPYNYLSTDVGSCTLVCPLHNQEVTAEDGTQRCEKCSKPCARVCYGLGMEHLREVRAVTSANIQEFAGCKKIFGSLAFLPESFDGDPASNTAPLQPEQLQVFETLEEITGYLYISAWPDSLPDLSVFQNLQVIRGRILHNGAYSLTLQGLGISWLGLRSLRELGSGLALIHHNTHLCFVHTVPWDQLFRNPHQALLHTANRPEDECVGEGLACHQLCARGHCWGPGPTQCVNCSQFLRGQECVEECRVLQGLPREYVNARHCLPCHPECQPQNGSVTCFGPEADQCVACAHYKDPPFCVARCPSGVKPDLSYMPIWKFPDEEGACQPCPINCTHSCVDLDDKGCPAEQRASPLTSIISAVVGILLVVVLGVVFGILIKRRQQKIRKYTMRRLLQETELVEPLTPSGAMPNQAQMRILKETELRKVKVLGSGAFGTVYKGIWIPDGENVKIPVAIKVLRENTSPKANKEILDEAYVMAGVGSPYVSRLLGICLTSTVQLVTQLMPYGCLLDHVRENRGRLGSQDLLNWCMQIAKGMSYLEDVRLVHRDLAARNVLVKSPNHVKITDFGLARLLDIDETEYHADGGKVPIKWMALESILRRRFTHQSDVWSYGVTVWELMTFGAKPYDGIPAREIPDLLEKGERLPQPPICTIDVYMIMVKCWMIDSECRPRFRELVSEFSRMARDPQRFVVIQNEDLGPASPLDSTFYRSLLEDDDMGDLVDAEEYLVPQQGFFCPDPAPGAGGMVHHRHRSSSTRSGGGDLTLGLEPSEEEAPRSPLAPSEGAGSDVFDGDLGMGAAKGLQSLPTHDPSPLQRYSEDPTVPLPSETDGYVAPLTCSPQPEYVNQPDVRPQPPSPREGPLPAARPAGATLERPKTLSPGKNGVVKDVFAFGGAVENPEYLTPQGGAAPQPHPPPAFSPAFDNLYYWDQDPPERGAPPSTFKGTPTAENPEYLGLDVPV

Cc1cc(Nc2ncnc3ccc(NC4=NC(C)(C)CO4)cc23)ccc1Oc1ccn2ncnc2c1 [TUCATINIB]
IC50 [1]: 0.0069 µM | IC50 [2]: 0.449 µM
